Measured values from PubChem BioAssay AID179 (DTP/NCI, 2004).
The source made the active and inactive calls.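 How the source made its calls: active means compounds giving half or more protection of infected cells from virus-caused growth loss, again on retest; inactive means the rest.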

Test system: CEM cells HIV-1 protection, formazan growth assay
Test: NCI AIDS Antiviral Assay
Conditions: for IC50: measured here: growth of uninfected CEM cells
Method in brief: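 Steps: treat uninfected and HIV-1-infected human CEM cells at five drug levels; quantify growth by soluble formazan; retest any compound reaching 50% protection; classify actives from the retest.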

Compound	EC50	IC50	outcome
CC(C)CNC(=S)N/N=C\c1ccncc1	> 200 µM	105 µM	–
CN1CCN(C(=S)N(C)C(=O)c2ccco2)CC1	> 933 µM	> 933 µM	–
NC(=O)c1ccc2c(c1)S(=O)(=O)c1ccccc1C2=O	> 200 µM	> 200 µM	–
Cc1ccc(S(=O)(=O)N/N=C(\c2nc3ccc(Cl)cc3[nH]c2=O)C(O)c2cccc([N+](=O)[O-])c2)cc1 (stereo unspecified)	> 468 µM	162 µM	–
NCCCN1CCN(CCCNc2ccc3nnn4c5ccccc5c(=O)c2c34)CC1	> 100 µM	5.89 µM	–
O=C(O)C[C@@H](Cl)[C@H](NC(=O)OCc1ccccc1)C(=O)O	–	–	inactive
COC1(CC[C@H](C)COC2OC(CO)C(O)C(O)C2O)O[C@H]2C[C@H]3[C@@H]4CC=C5C[C@@H](OC6OC(CO)C(O)C(OC7OC(CO)C(O)C(O)C7O)C6OC6OC(C)C(O)C(O)C6O)CC[C@]5(C)[C@H]4CC[C@]3(C)[C@H]2[C@@H]1C (stereo partly specified)	> 200 µM	3.89 µM	–
CC1(C)OC(=O)C(CC(=O)O)O1 (stereo unspecified)	–	–	inactive
O=c1[nH]c(Cc2ccccc2)nc2c1sc1nc3ccccc3n12	> 200 µM	> 200 µM	–
Nc1cccc(C(=O)/C=C/c2ccccc2O)c1	> 282 µM	55 µM	–
CCOc1ccc(NC(=O)CC2C(=O)Nc3ccccc3S2(=O)=O)cc1 (stereo unspecified)	> 19.5 µM	> 19.5 µM	–
CCN(CC)CCNC(=O)c1ccc(I)cc1	> 200 µM	> 200 µM	–
O=C(CC(C(=O)c1cccs1)c1ccccc1)c1ccccc1O (stereo unspecified)	> 200 µM	115 µM	–
CN1C(=O)/C(=C2\SC(=O)N(Cc3nc4ccccc4[nH]3)C2=O)c2cc(Br)ccc21	> 200 µM	12.9 µM	–
COc1ccc(NC(C)=O)cc1N1C(=O)/C(=C\c2cc(OC)c(OC)c(OC)c2)SC1c1ccccc1 (stereo unspecified)	–	–	inactive
CNC(=O)C1CCCN1C(=O)C(Cc1cnc[nH]1)NC(=O)C1CCC(=O)N1 (stereo unspecified)	> 200 µM	> 200 µM	–
O=C(Cc1ccccc1)NN1C(=O)C(Cl)C1c1ccccc1Cl (stereo unspecified)	> 28.8 µM	> 28.8 µM	–
N=C1SCC(=O)N1CCN1C(=N)SCC1=O	> 79.4 µM	> 79.4 µM	–
N#Cc1nc(C2OC(COC(=O)c3ccccc3)C(OC(=O)c3ccccc3)C2OC(=O)c2ccccc2)oc1N (stereo unspecified)	> 18.2 µM	9.77 µM	–
Cc1cccc(C)c1NC(=O)/C(Cc1nc2ccc([N+](=O)[O-])cc2[nH]c1=O)=N\NC(N)=O	> 417 µM	126 µM	–
O=C1CCC/C1=C1/SS/C(=C2/CCCC2=O)S1	> 200 µM	102 µM	–
C=CCNC(=O)CN(CC(=O)O)C1CCCCC1N(CC(=O)O)CC(=O)O (stereo unspecified)	> 200 µM	> 200 µM	–
c1cc2c3ccsc3c3sccc3c2s1	> 200 µM	> 200 µM	–

Compound	EC50	IC50	outcome
Cc1cc(C)c2c(c1)sc1n[nH]c(=S)n12	> 63.1 µM	> 63.1 µM	–
CC1=CCC23C(C1)OC(Br)(C=CC2(C)O)C3(C)C (stereo unspecified)	–	–	inactive
O=C(Nc1ccc(Cl)c(Cl)c1)NN1CCCCCC1	–	–	inactive
N#Cc1c2c(cn3c1nc1ccccc13)CCCC2	> 200 µM	107 µM	–
Brc1ccc2c(c1)C1=C(CO2)Cc2ccccc2O1	–	–	inactive
COc1cccc2c(=O)oc(-c3ccccc3C)nc12	> 200 µM	45.7 µM	–
COc1ccc2c(c1)CCc1cnoc1-2	> 178 µM	110 µM	–
CCS(=O)(=O)c1c2cc(OC)ccc2nc2ccc(OC)cc12	> 200 µM	> 200 µM	–
COC1=C2C[C@@H](C)C[C@@H](OC)[C@@H](O)[C@H](C)/C=C(\C)[C@@H](OC(N)=O)[C@H](OC)/C=C\C=C(/C)C(=O)NC(=CC1=O)C2=O	> 1.15 µM	0.0813 µM	–
Cc1cc(=O)[nH]c2cc(N(C)C)ccc12	> 67.6 µM	> 67.6 µM	–
COc1ccc(CNc2cnc3ccc(N)cc3n2)cc1	> 129 µM	77.6 µM	–
COc1ccc2cc3[n+](cc2c1O)CCc1cc2c(cc1-3)OCO2	> 347 µM	6.03 µM	–
CCOC(=O)/C(=C(\C)N)C1CC(=O)NC1=O (stereo unspecified)	> 200 µM	107 µM	–
CC(Cn1c(=O)oc2ccccc21)N(C)C (stereo unspecified)	> 200 µM	> 200 µM	–
CCOC(=O)/C=C/[C@H](O)[C@@H](O)/C=C/C(=O)OCC	> 200 µM	17 µM	–
CNC(=O)CN(CC(N)=O)C(N)=O	> 191 µM	> 191 µM	–
CC(C)(C)C(=O)ON1N=NC2C3CC(OCc4ccccc4)(OCc4ccccc4)C(O3)C21 (stereo unspecified)	> 15.8 µM	> 15.8 µM	–
S=c1[nH]nc(C23CC4CC(CC(C4)C2)C3)n1-c1ccc(Cl)cc1	> 200 µM	23.4 µM	–
CC1=[N+]([O-])C(C)(C)N(O)C1(C)C	> 200 µM	> 200 µM	–
C/C(CC(=O)NCCc1ccccc1)=N\NC(=O)C[n+]1ccccc1	> 95.5 µM	> 95.5 µM	–
CN(C)NC(=O)/C(=C/c1ccc(Cl)cc1)NC(=O)c1ccccc1	> 145 µM	> 145 µM	–
CC(C)c1nsc(N)c1C(N)=O	> 200 µM	> 200 µM	–
CCOC(=O)C(=O)Cc1cc(=O)n(C)c2ccccc12	> 200 µM	170 µM	–

Compound	EC50	IC50	outcome
Cc1cc(NS(=O)(=O)c2ccc(NC(=O)c3cccc4c(Nc5ccc(S(=O)(=O)Nc6cc(C)on6)cc5)c5ccc(Cl)cc5nc34)cc2)no1	> 240 µM	135 µM	–
CC1=C[C@H]2O[C@@H]3C[C@H]4OC(=O)/C=C\C=C\C(C(C)O)OCC(O)C(C)CC(=O)OC[C@@]2(C[C@@H]1O)[C@]4(C)[C@@]31CO1 (stereo partly specified)	> 2 µM	0.0631 µM	–
COc1cc(NS(=O)(=O)c2ccc(C(C)=O)cc2)nc(OC)n1	> 200 µM	> 200 µM	–
CC1=C(C(=O)N[C@@H](Cc2ccccc2)C(=O)O)N2C(=O)[C@@H](NC(=O)[C@@H](N)CC(C)C)[C@H]2SC1	174 µM	> 200 µM	–
Nc1nc(Nc2ccc(Cl)c(Cl)c2)nc2nc[nH]c12	> 200 µM	20.9 µM	–
C1CSCCCSCCCSCCCSCCCSC1	> 14.1 µM	> 14.1 µM	–
COc1nc(C(=O)O)c(Cl)c(OC)c1Cl	> 513 µM	> 513 µM	–
C=CCOc1ccc(/C(N=Nc2ccc(C)cc2)=N/NC(=O)c2ccccc2)cc1OC	> 200 µM	10 µM	–
CC1OC(Oc2c(-c3ccc(O)c(O)c3)oc3cc(O)cc(O)c3c2=O)C(O)C(O)C1O (stereo unspecified)	–	–	inactive
COc1ccc(/C=C2\CCC(C)C3=C2N=c2s/c(=C/c4cccc(Br)c4)c(=O)n2C3c2ccc(OC)c(OC)c2)cc1OC (stereo unspecified)	> 50.1 µM	> 50.1 µM	–
COc1cc(C2C(Cl)C(=O)N2NC(=O)Cc2ccccc2)ccc1O (stereo unspecified)	> 72.4 µM	> 72.4 µM	–
Nc1sc(=S)nc2[nH]ncc12	> 200 µM	> 200 µM	–
NC(=O)c1ccc2cc(O)c(O)cc2c1	> 245 µM	34.7 µM	–
N#Cc1c(N)c(C(=O)Nc2ccc(S(N)(=O)=O)cc2)n2c1CCC2	> 200 µM	> 200 µM	–
CN(C)c1ccc(C(=CC=C2c3ccccc3C(=O)c3ccccc32)c2ccc(N(C)C)cc2)cc1	> 3.09 µM	> 3.09 µM	–
C=CCOC(=O)C1(C)C(=O)CCC1CC/C=C/C(C)=O (stereo unspecified)	> 129 µM	6.03 µM	–
O=S(=O)(O)c1ccc(Nc2ccnc3cc(Cl)ccc23)cc1	> 200 µM	> 200 µM	–
N#CC(NCCc1ccccc1)c1ccccc1 (stereo unspecified)	–	–	inactive
Cn1c(NC(=O)NC23CC4CC(CC(C4)C2)C3)nc2ccccc21	> 200 µM	> 200 µM	–
COc1cc(OC)c2c(=O)c(OC)c(-c3ccc4c(c3)OCO4)oc2c1OC	> 200 µM	> 200 µM	–
CC1(c2ccc(F)cc2)C2C(=O)NC(=O)C1C(=O)NC2=O (stereo unspecified)	> 871 µM	575 µM	–
C[CH2][Sn]([CH2]C)([O]C(=O)c1ccccc1F)[O]C(=O)c1ccccc1F	> 29.5 µM	17.4 µM	–
CCOP(=O)(OCC)/C(C#N)=C(\C)c1ccco1	> 200 µM	> 200 µM	–

Compound	EC50	IC50	outcome
CCO/C=N\c1c(C#N)c(-c2ccc(Cl)cc2)cn1-c1ccc(C)cc1	> 200 µM	25.1 µM	–
CCOC(=O)C1(c2ccc(O)c(O)c2)CCN(C)CC1	> 794 µM	380 µM	–
C=C1CC2CCCC12C=O (stereo unspecified)	> 263 µM	145 µM	–
S=C(Nc1ccccn1)Nc1ccccn1	> 200 µM	195 µM	–
O=C1/C(=C/c2cccc(O)c2)SC(=S)N1/C=C\c1nc2ccccc2[nH]c1=O	> 200 µM	81.3 µM	–
Cc1nccc2c1cnc1ccnn12	> 28.2 µM	> 28.2 µM	–
COC(=O)C(C)[P+](c1ccccc1)(c1ccccc1)c1ccccc1 (stereo unspecified)	> 200 µM	5.75 µM	–
[CH3][Sn]([CH3])([CH3])[c]1cccc2ccccc12	–	–	inactive
Cc1c(-c2nnc(-c3ccc(Cl)cc3)o2)c(=O)n(-c2ccccc2)n1C	> 200 µM	> 200 µM	–
COC1(OC)/C(=C(\N)C=O)NC(C)(C)N1O	–	–	inactive
O=C1NC2(C=Cc3c(ccc4ccccc34)O2)Oc2ccccc21 (stereo unspecified)	> 11.5 µM	> 11.5 µM	–
c1ccc2c(c1)cnc1c3ccccc3nn21	> 17.4 µM	> 17.4 µM	–
Cc1ccc(/C=C2/NC(=S)SC2=O)cc1	> 200 µM	170 µM	–
COc1ccc(NS(=O)CCc2ccccc2)cc1 (stereo unspecified)	> 200 µM	22.9 µM	–
CCCCn1c(-c2ccccc2)cs/c1=N\N=C1C=C(C(C)(C)C)C(=O)C(C(C)(C)C)=C1	> 15.8 µM	> 15.8 µM	–
O=C(O)c1cscc1C(=O)O	> 200 µM	> 200 µM	–
CN(C(=O)C12C3C4C1C1C2C3C41C(N)=O)C(C)(C)C (stereo unspecified)	> 52.5 µM	> 52.5 µM	–
c1ccc2c(c1)nc(NC1CCCC1)c1[nH]c(C3CCCC3)nc12	> 200 µM	25.1 µM	–
NC(=O)OCc1c(-c2ccccc2)nn(-c2ccccc2)c1COC(N)=O	> 200 µM	> 200 µM	–
O=C1CC(c2ccccc2)NC(=O)N1CCN1CCOCC1 (stereo unspecified)	> 200 µM	> 200 µM	–
CC(=O)OCC1OC(Nc2cc(=O)n(C)c(=O)[nH]2)C(OC(C)=O)C(OC(C)=O)C1OC(C)=O (stereo unspecified)	–	–	inactive
CCc1cc2c(Nc3ccccc3)c3c(nc2s1)CCCC3	> 85.1 µM	> 85.1 µM	–
